From patent US20230364057A1, “BACTERIAL DNA GYRASE INHIBITORS AND METHODS OF USE THEREOF” (THE FLORIDA INTERNATIONAL UNIVERSITY BOARD OF TRUSTEES, priority 2022, published 2023) come the findings set out here.

For experiment [1], the target named is T1, E. coli DNA gyrase (Escherichia coli (strain K12), UniProt P0AES4+P0AES6). In words: biochemical. The format is biochemical.
For experiment [2], the target named is T1, E. coli DNA gyrase. The experiment can be described thus: Agarose gel-based DNA gyrase inhibition assay. The format is biochemical. How it is done:
100 ng of DNA gyrase was used to supercoil the rx pAB1 in the presence of different concentrations of a gyrase inhibitor. […] Samples were analyzed by electrophoresis in 1% w/v agarose gels followed by ethidium bromide staining and photographed under UV light.

Where [3] appears, read: IC50 ([…]-50 µM), bin of Table 2.
Where [4] appears, read: IC50 (50-200 µM), bin of Table 2.

As for `O=C(O)CCCN1C(=O)C(=Cc2ccc(-c3nc4ccccc4s3)o2)SC1=S` (single isomer, unassigned) [Compound 41], the midpoint of inhibition on E. coli DNA gyrase [1] (IC50 (≤15 µM) IC50, Table 2), the IC50, lay at 1.48 µM.
Take `O=C(/C=C/c1ccc(O)c(O)c1)O[C@@H]1CC(O)(C(=O)O)C[C@@H](OC(=O)/C=C/c2ccc(O)c(O)c2)C1O` (stereo partly shown) [3,5-dicaffeoylquinic acid, reference compound]: the “inhibition of E. coli DNA gyrase activities” value (“inhibition” for short) at E. coli DNA gyrase [1] is “strongly inhibit”.
On to `CCOC(=O)c1cc(-c2ccc(N3CCOCC3)cc2)nn1-c1ccccc1C(=O)O` [Compound 7], for which the “inhibition” value against E. coli DNA gyrase [2] (50 µM of compounds) and on E. coli DNA gyrase [2] (200 µM of compounds) was “completely inhibited” in each case. Also, the IC50 (usually the concentration needed to halve the response being measured) at E. coli DNA gyrase [1] (setting [3]) is 25 to 50 µM.
In the case of `COc1ccc(C2=NN(c3nc(-c4ccccc4)c(CC(=O)O)s3)C(c3ccco3)C2)cc1` (stereo not shown) [Compound 10], the “inhibition” value against E. coli DNA gyrase [2] (200 µM of compounds) was “completely inhibited”. The compound further showed an IC50 against E. coli DNA gyrase [1] (setting [4]) of 50 to 200 µM.
In the case of `N#CC(=Cc1ccc(C(=O)O)cc1)c1nc2sc3c(c2c(=O)[nH]1)CCCC3` [Compound 12], the “inhibition” value against E. coli DNA gyrase [2] (50 µM of compounds) and on E. coli DNA gyrase [2] (200 µM of compounds) was “completely inhibited” in each case. On E. coli DNA gyrase [1] (setting [3]), this compound had an IC50 of 25 to 50 µM.
As to `Cc1cc(C)c(-c2nc3ccccc3s2)[nH]1` [Compound 13], at E. coli DNA gyrase [2] (200 µM of compounds), the “inhibition” value was “almost completely inhibited”. The same compound displayed an IC50 on E. coli DNA gyrase [1] (setting [4]) of 50 to 200 µM.
Consider `O=C(Nc1nc2cc3c(cc2s1)OCO3)C1CC1` [Compound 15], for which, at E. coli DNA gyrase [2] (200 µM of compounds), the “inhibition” value is reported as “completely inhibited”. Besides, the IC50 against E. coli DNA gyrase [1] (setting [4]) lay within 50 to 200 µM.
The like results for `CCc1ccc(S(=O)(=O)/N=C2/C=C(Nc3cccc(C(=O)O)c3)C(=O)c3ccccc32)cc1` [Compound 17] were, in that order, “completely inhibited” and 50 to 200 µM.
Take `Cc1n[nH]c(SC(Cc2ccc(-c3cccc(Cl)c3)o2)C(=O)O)n1` (stereo not shown) [Compound 18]: the “inhibition” value at E. coli DNA gyrase [2] (50 µM of compounds) and against E. coli DNA gyrase [2] (200 µM of compounds) was “completely inhibited” each time. The same compound had an IC50 at E. coli DNA gyrase [1] (setting [3]) of 25 to 50 µM.
On to `CCc1ccc(OCC(=O)/N=c2/[nH]nc(-c3ccco3)s2)cc1` [Compound 22], for which the “inhibition” value on E. coli DNA gyrase [2] (200 µM of compounds) was “completely inhibited”. Also, the IC50 against E. coli DNA gyrase [1] (setting [4]) lay in the range of 50 to 200 µM.
As for `CC(C)(C)N1C(=O)N=C(O)/C(=C\c2ccc3c(c2)CCN3CCCCl)C1=O` [Compound 23], the “inhibition” value against E. coli DNA gyrase [2] (50 µM of compounds) and on E. coli DNA gyrase [2] (200 µM of compounds) was “completely inhibited” each time. Moreover, the concentration for half-maximal inhibition (IC50) on E. coli DNA gyrase [1] (setting [3]) is 25 to 50 µM.
On to `Cc1ccc(NC2=NC(=O)/C(=C/C=C/c3ccco3)S2)cc1` [Compound 24], for which the “inhibition” value against E. coli DNA gyrase [2] (50 µM of compounds) and on E. coli DNA gyrase [2] (200 µM of compounds) was “completely inhibited” throughout. Also, the IC50 against E. coli DNA gyrase [1] (setting [3]) is 25 to 50 µM.
Consider `O=C(O)CCN1C(=O)/C(=C/c2ccc(-c3nc4ccccc4s3)o2)SC1=S` [Compound 27], for which the “inhibition” value against E. coli DNA gyrase [2] (50 µM of compounds) and against E. coli DNA gyrase [2] (200 µM of compounds) was “completely inhibited” in each case.
Regarding `COc1ccc(-c2cc(-c3ccco3)nc(O)c2C#N)cc1OC` [Compound 28], the “inhibition” value against E. coli DNA gyrase [2] (200 µM of compounds) is “almost completely inhibited”. For the same compound, the IC50 on E. coli DNA gyrase [1] (setting [4]) was in the range of 50 to 200 µM.
Turning to `Cc1cc(/C=C2\SC(=S)N=C2O)c(C)n1-c1ccccc1` [Compound 29], the “inhibition” value against E. coli DNA gyrase [2] (50 µM of compounds) and against E. coli DNA gyrase [2] (200 µM of compounds) was “completely inhibited” throughout. Besides, the IC50 against E. coli DNA gyrase [1] (setting [3]) lay within 25 to 50 µM.
In the case of `CC(=O)NC1=NC(=O)/C(=C/c2cc(C)n(-c3cccc(C(=O)O)c3)c2C)S1` [Compound 31], at E. coli DNA gyrase [2] (200 µM of compounds), the “inhibition” value was “completely inhibited”. The compound further came in with an IC50 against E. coli DNA gyrase [1] (setting [4]) of 50 to 200 µM.
The like results for `Cc1ccc(/C=C2\SC(N3CCN(C(c4ccccc4)c4ccccc4)CC3)=NC2=O)o1` [Compound 33] were, in that order, “completely inhibited” and 50 to 200 µM.
With `O=C1/C(=C\c2ccc(O)cc2)SC(=S)N1/N=C/c1ccc(O)cc1` [Compound 35], the “inhibition” value on E. coli DNA gyrase [2] (50 µM of compounds) and against E. coli DNA gyrase [2] (200 µM of compounds) was “completely inhibited” each time. For the same compound, the IC50 against E. coli DNA gyrase [1] (setting [3]) was in the range of 25 to 50 µM.
With `CC(C)(CS(=O)(=O)[O-])NC(=O)CC[N+](C)(C)CCO` [Compound 42], the “inhibition” value against E. coli DNA gyrase [2] (50 µM of compounds) and on E. coli DNA gyrase [2] (200 µM of compounds) was “completely inhibited” each time.
With `CN1C(=O)/C(=C\c2ccc(-c3ccccc3)o2)SC1=S` [Compound 57], at E. coli DNA gyrase [2] (200 µM of compounds), the “inhibition” value is reported as “almost completely inhibited”.
On to `Cc1cc(C)c2c(c1)C(/N=N/c1cc([N+](=O)[O-])ccc1C)C(O)=N2` (stereo not shown) [Compound 114], for which the “inhibition” value at E. coli DNA gyrase [2] (50 µM of compounds) is recorded as “completely inhibited”.
As for `Cc1cccc2c1N=C(O)C2/N=N/c1ccc(S(N)(=O)=O)cc1` (stereo not shown) [Compound 116], the “inhibition” value at E. coli DNA gyrase [2] (50 µM of compounds) is on record as “completely inhibited”.
Still for that read-out and setting: the same measure for `Cc1cc(C)c2c(c1)C(=NNc1ccc(C)c(Cl)c1)C(O)=N2` [Compound 132]: “completely inhibited”; for `N#C/C(=C\c1coc2ccc(O)cc2c1=O)C(=O)/N=c1\[nH]c2ccccc2s1` [Compound 165]: “completely inhibited”; for `O=C(O)C(c1ccccc1)N1C(=O)/C(=C\c2ccc(-c3cccc(Cl)c3)o2)SC1=S` (stereo not shown) [Compound 176]: “completely inhibited”.
Same read-out and setting: the same measure for `O=C1/C(=C\c2ccc(O)c([N+](=O)[O-])c2)SC(=S)N1Cc1ccccc1` [Compound 192]: “completely inhibited”.
In the case of `O=C1NC(=S)S/C1=C/c1cc(Cl)cc(Cl)c1O` [Compound 207], the “inhibition” value is recorded as “inhibited” against E. coli DNA gyrase [2] (50 µM of compounds) and “completely inhibited” at E. coli DNA gyrase [2] (200 µM of compounds).
Regarding `Brc1ccc2c(c1)-c1ccccc1C1=NCCN12` [Compound 217], the “inhibition” value at E. coli DNA gyrase [2] (200 µM of compounds) is given as “completely inhibited”.
Regarding `CN(C)c1ccc(/C=c2\c3ccccc3n3c2cc(-c2ccccc2)[n+]3C)cc1` [Compound 236], the “inhibition” value against E. coli DNA gyrase [2] (50 µM of compounds) and against E. coli DNA gyrase [2] (200 µM of compounds) was “completely inhibited” each time.
For the compound `COc1ccc2c(c1)/c(=C\c1ccc(N(C)C)cc1)c1cc(-c3ccccc3)[n+](C)n12.O=S(=O)([O-])C(F)(F)F` [Compound 237], the “inhibition” value on E. coli DNA gyrase [2] (200 µM of compounds) is listed as “completely inhibited”.
Same read-out and setting: the same measure for `CC1=NN(c2nc(N)nc(/C(C#N)=C\c3ccc([N+](=O)[O-])o3)n2)C(C)(C)C1` [Compound 238]: “completely inhibited”.
On the same count and under the same terms, the same measure for `CCOC(=O)c1cc2c(=Cc3ccc(N(C)C)cc3)c3ccccc3n2[n+]1C.O=S(=O)([O-])C(F)(F)F` [Compound 239]: “completely inhibited”; for `COc1cccc2nc3c(C(=O)NCCN(C)C)cccc3cc12.Cl` [Compound 240]: “completely inhibited”; for `CN(C)CCNC(=O)c1cccc2nc3cccc(F)c3nc12.Cl` [Compound 241]: “completely inhibited”.
In the case of `Nc1ccc2cc3ccc(N)cc3nc2c1` [Compound 246], on E. coli DNA gyrase [2] (200 µM of compounds), the “inhibition” value is reported as “completely inhibited”.
Same read-out and setting: with `Nc1c2ccccc2nc2ccccc12` [Compound 247] the entry was “completely inhibited”; with `CN1/C(=C/c2cc[n+](C)c3ccccc23)Sc2ccccc21.Cc1ccc(S(=O)(=O)[O-])cc1` [Compound 248], “completely inhibited”.
Still for that read-out and setting: the same measure for `CN(C)c1ccc2cc3ccc(N(C)C)cc3nc2c1` [Compound 249]: “completely inhibited”.
With `CCOc1ccc2nc3cc(N)ccc3c(N)c2c1` [Compound 257], the “inhibition” value on E. coli DNA gyrase [2] (200 µM of compounds) is “completely inhibited”.
Consider `CSC1SC2C(=O)N(C)C(C(C)C)C(=O)OCC(NC(=O)c3cnc4ccccc4n3)C(=O)NC(C)C(=O)N(C)C1C(=O)N(C)C(C(C)C)C(=O)OCC(NC(=O)c1cnc3ccccc3n1)C(=O)NC(C)C(=O)N2C` (stereo not shown) [Compound 258], for which, on E. coli DNA gyrase [2] (200 µM of compounds), the “inhibition” value is on record as “completely inhibited”.
Regarding `O=C(O[C@@H]1Cc2c(O)cc(O)cc2O[C@@H]1c1cc(O)c(O)c(O)c1)c1cc(O)c(O)c(O)c1` [EGCG, epigallocatechin gallate, reference compound], the “inhibition” value against E. coli DNA gyrase [1] is “strongly inhibit”.
`CN1C[C@H](CNC(=O)OCc2ccccc2)C[C@@H]2c3cccc4c3c(cn4C)C[C@H]21` [Metergoline, metergoline, reference compound]: on E. coli DNA gyrase [1], the “inhibition” value was “inhibits gyrase activities at 100 and 200 µM”.
Consider `O=C(OC[C@H]1O[C@@H](OC(=O)c2cc(O)c(O)c(OC(=O)c3cc(O)c(O)c(O)c3)c2)[C@H](OC(=O)c2cc(O)c(O)c(OC(=O)c3cc(O)c(O)c(O)c3)c2)[C@@H](OC(=O)c2cc(O)c(O)c(OC(=O)c3cc(O)c(O)c(O)c3)c2)[C@@H]1OC(=O)c1cc(O)c(O)c(OC(=O)c2cc(O)c(O)c(O)c2)c1)c1cc(O)c(O)c(OC(=O)c2cc(O)c(O)c(O)c2)c1` [Tannic acid, tannic acid], for which the IC50 at E. coli DNA gyrase [2] (gel-based, read-out: IC50 against E. coli DNA gyrase) worked out at 1 µM.
On to `O=c1oc2c(O)c(O)cc3c(=O)oc4c(O)c(O)cc1c4c23` [ellagic acid, reference compound], for which the “inhibition” value at E. coli DNA gyrase [1] is on record as “strongly inhibit”.
As for `Cc1c2cc(O)c(=O)cc-2oc2cc(O)c(O)cc12` [methyl fluorone black], the IC50 on E. coli DNA gyrase [1] (read-out: IC50 against E. coli DNA gyrase) was < 10 µM.
Turning to `O=c1ccc2cc3ccoc3cc2o1` [psoralen, reference compound], on E. coli DNA gyrase [1], the “inhibition” value is on record as “is not a gyrase inhibitor”.
The same measure, in the same setting: the same measure for `O=C(O)c1cc(O)c2c(c1)C(=O)c1cccc(O)c1C2=O` [rhein]: “potently inhibited”.
